Reference: patent publication US6211170A, “Azetidinone derivatives for the treatment of HCMV infections” (Boehringer Ingelheim (Canada) Ltd., priority 1998, dated 2001)
Where two headings read alike, the source gives them in different places.

Tests used:
[1] = Cytotoxicity, tetrazolium salt (MTT) metabolic assay; type: cell-based; settings: cytotoxic effects, read-out: TC50 (the source's name)
Procedure: Cytotoxic effects noted as TC50 in the following tables were determined according to the tetrazolium salt (MTT) metabolic assay, F. Denizot and F. Lang, J. Immun. Meth., 1986, 89, 271.

HCMV NO protease = target: T1, HCMV NO protease (Human cytomegalovirus, UniProt P16753); assay: HCMV NO Protease Assay (fluorogenic substrate cleavage); type: biochemical; settings: HCMV NO protease 100 nM, substrate 5 μM, pH 8, 2.5 h at 30°
T1 construct: HCMV NO protease
T1 sequence (P16753 1-256): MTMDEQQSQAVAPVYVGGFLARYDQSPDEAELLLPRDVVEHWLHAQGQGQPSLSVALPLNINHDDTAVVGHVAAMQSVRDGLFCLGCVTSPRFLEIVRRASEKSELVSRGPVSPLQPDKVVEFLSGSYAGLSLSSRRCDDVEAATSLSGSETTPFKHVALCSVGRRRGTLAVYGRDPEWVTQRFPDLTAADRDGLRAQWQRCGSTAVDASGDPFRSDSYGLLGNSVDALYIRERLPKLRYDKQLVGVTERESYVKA
Procedure: This particular assay determines the ability of a test compound to inhibit the activity (IC50) of HCMV protease. More specifically, in the assay described herein, the inhibitory activity of the test compound is evaluated on the basis of its ability to interfere with the HCMV NO protease cleavage of a fluorogenic peptide substrate which in turn is based on the maturation cleavage site of the enzyme.
1. HCMV NO Protease Assay
Material & Methods: Fluorescence measurements were recorded on a Perkin-Elmer LS-50B spectrofluorimeter equipped with a plate reader accessory. UV measurements were recorded on a Thermomax® microplate reader from Molecular Devices Corporation, Menlo Park, Calif., USA.
HCMV NO protease was assayed with an internally quenched fluorogenic substrate based on the maturation cleavage site (Abz-[…](3-NO2)R--OH, kcat /KM =260 M^-1 s^-1). The fluorescence increase upon cleavage of the Ala-Ser amide bond was monitored using excitation λ=312 nm (slit 2.5 nm) and emission λ=415 nm (slit 5 nm). A protocol adaptable to a 96-well plate format was designed for the determination of IC50 values of inhibitors.
After this period, enzymatic hydrolysis of the fluorogenic substrate in the absence of inhibitor led to about a 30% conversion. Quenching was not required before fluorescence measurement since the total scanning time by the plate reader accessory was brief relative to the duration of the reaction. The aqueous incubation buffer contained 50 mM tris(hydroxymethyl)aminomethane.HCl pH 8, 0.5M Na2 SO4, 50 mM NaCl, 0.1 mM EDTA, 1 mM tris(2-carboxyethyl)phosphine.HCl, 3% v/v DMSO and 0.05% w/v casein. The final concentrations of HCMV NO protease (expressed in terms of total monomer concentration) and substrate were 100 nM and 5 μM respectively. IC50 values were obtained through fitting of the inhibition curve to a competitive inhibition model using SAS NLIN procedure. The mode of inhibition was determined by measurements of the initial rates (in cuvettes) at various substrate concentrations in the buffer as described above. The IC50 values listed in the following tables were obtained according to this assay.

[2] = tested on: HCMV (strain AD169, ATCC VR-538); assay: Plaque Reduction Assay (PRA) in HCMV-infected Hs-68 cells; type: cell-based, human cytomegalovirus (HCMV)
Procedure: B. Plaque Reduction Assay (PRA):
Hs-68 cells (ATCC # CRL 1635) were seeded in 12-well plates at 83,000 cells/well in 1 mL of DMEM medium (Gibco Canada Inc.) supplemented with 10% fetal bovine serum (FBS, Gibco Canada Inc.). The plates were incubated for 3 days at 37° to allow the cells to reach 80-90% confluency prior to the assay.
The medium was removed from the cells by aspiration. The cells were then infected with approximately 50 PFU of HCMV (strain AD169, ATCC VR-538) in DMEM medium supplemented with 5% inactivated FBS (assay medium). (DMEM medium is commercially available and has been described by R. Dulbecco et al., Virology 1959, 8, 396.) The virus was allowed to adsorb to cells for 2 h at 37°. Following viral adsorption, the medium was removed from the wells by aspiration. The cells were then incubated with or without 1 mL of appropriate concentrations of test reagent in assay medium. Occasionally, test compounds were added 24 h post-infection. After 4 days of incubation at 37°, the medium was exchanged with fresh medium containing test compound and 4 days later the cells were fixed with 1% aqueous formaldehyde and stained with a 2% violet solution in 20% ethanol in water. Microscopic plaques were counted using a stereomicroscope. Drug effects were calculated as a percent reduction in the number of plaques in the presence of each drug concentration compared to the number observed in the absence of drug. Ganciclovir was used as a positive control in all experiments.

[3] = Human betaherpesvirus 5, Hs68, 192 h, plaque reduction, HCMV strain AD169, Hs-68 cells, 8 days, read-out: EC50
[4] = Human betaherpesvirus 5, AD169, Hs68, 192 h

Row | SMILES | CC50 [1] | IC50 (HCMV NO protease) | EC50 [2, 3] | EC50 [2, 4]
1 | CC[C@@H](NC(=O)N1C(=O)[C@@H](C)[C@@H]1CSC1CCCCC1)c1ccccc1 [Entry 114] | > 250 µM | 3 µM | > 250 µM | –
2 | COC(=O)c1ccc(CN(C)C(=O)N2C(=O)C[C@@H]2CSc2nnnn2C)cc1 [Entry 309] | > 250 µM | 1 µM | 130 µM | –
3 | CC[C@@H](NC(=O)N1C(=O)C[C@@H]1[C@H](C)Sc1ncccn1)c1ccccc1 [Entry 208, 2-oxo-4(R)-[1(S)-(pyrimidin-2-ylsulfanyl)ethyl]-azetidine-1-carboxylic acid (1(R)-phenylpropyl)amide] | > 250 µM | 4.5 µM | > 250 µM | –
4 | CC[C@@H](NC(=O)N1C(=O)[C@@H](C)[C@@H]1CSCC(C)C)c1ccccc1 [Entry 117] | > 250 µM | 3.5 µM | 110 µM | –
5 | CC[C@@H](NC(=O)N1C(=O)[C@@H](C)[C@@H]1CSc1ccoc1C)c1ccccc1 [Entry 115] | > 250 µM | 4.2 µM | 85 µM | –
6 | CC[C@@H](NC(=O)N1C(=O)C[C@@H]1CSc1nc2ccccc2o1)c1ccccc1 [Entry 141] | > 26 µM | 0.8 µM | – | 22 µM
7 | CN(Cc1ccc(C(F)(F)F)cc1)C(=O)N1C(=O)C[C@@H]1CSc1ccncc1 [Entry 311] | > 250 µM | 0.6 µM | 250 µM | –
8 | CC[C@@H](NC(=O)N1C(=O)C[C@@H]1[C@@H](C)Sc1ncccn1)c1ccccc1 [Entry 209, 2-oxo-4(R)-[1(R)-(pyrimidin-2-ylsulfanyl)ethyl]azetidine-1-carboxylic acid (1(R)-phenylpropyl)amide] | > 168 µM | 3.4 µM | 80 µM | –
9 | CN(Cc1ccc(C(F)(F)F)cc1)C(=O)N1C(=O)C[C@@H]1CSc1nc2ccccc2o1 [Entry 319] | > 250 µM | 1.7 µM | 160 µM | –
10 | O=C(NC[C@H]1CC(=O)N1C(=O)NCc1ccccc1)c1ccccc1 [Entry 204] | > 250 µM | 2.6 µM | 120 µM | –
11 | CC[C@@H](NC(=O)N1C(=O)[C@@H](C)[C@@H]1CSc1nc2ccccc2o1)c1ccccc1 [Entry 112] | > 250 µM | 0.94 µM | 140 µM | –
12 | CN(Cc1ccc(C(F)(F)F)cc1)C(=O)N1C(=O)C[C@@H]1CSc1nccn1C [Entry 314] | > 250 µM | 5.5 µM | > 250 µM | –
13 | CC[C@@H](NC(=O)N1C(=O)C[C@@H]1CSc1nc2ncccc2s1)c1ccccc1 [Entry 139] | > 53 µM | 0.8 µM | – | > 53 µM
14 | CC[C@@H](NC(=O)N1C(=O)[C@@H](C)[C@@H]1CSc1nc2ccccc2s1)c1ccccc1 [Entry 109] | > 250 µM | 1.2 µM | 160 µM | –
15 | CN(Cc1ccc(C#N)cc1)C(=O)N1C(=O)C[C@@H]1CSc1ncccn1 [Entry 312] | > 250 µM | 4.7 µM | 100 µM | –
16 | CC[C@@H](NC(=O)N1C(=O)[C@@H](C)[C@@H]1CSc1ncccn1)c1ccccc1 [Entry 111] | > 250 µM | 0.65 µM | 110 µM | –
17 | CN(C)C(=O)c1ccc(CN(C)C(=O)N2C(=O)C[C@@H]2CSc2ncccn2)cc1 [Entry 305] | > 250 µM | 14 µM | 210 µM | –
18 | CC[C@@H](NC(=O)N1C(=O)C[C@@H]1COc1ccccn1)c1ccccc1 [Entry 101] | 151 µM | 8.4 µM | 55 µM | –
19 | CC[C@@H](NC(=O)N1C(=O)C[C@@H]1CSC)c1ccccc1 [Entry 127, 4(R)-(methylsulfanyl)methyl-2-oxoazetidine-1-carboxylic acid (1(R)-phenylpropyl)amide] | > 250 µM | 3.8 µM | > 250 µM | –
20 | CC[C@@H](NC(=O)N1C(=O)[C@@H](C)[C@@H]1CSc1nccc(C)n1)c1ccccc1 [Entry 123] | > 250 µM | 0.98 µM | 150 µM | –
21 | CN(Cc1ccc(F)cc1)C(=O)N1C(=O)C[C@@H]1CSc1ncccn1 [Entry 313] | > 250 µM | 8.3 µM | 110 µM | –
